pIC50, pKi: −log10 of the molar value.
Test: Inhibition of thermolysin by enzcheck protease assay

| Compound | pIC50 | pKi |
| --- | --- | --- |
| CCCCC[C@H](CC(=O)NO)C(=O)N[C@H](C(=O)N1CCC[C@H]1CO)C(C)C [ACTINONIN] | 4.74 | 5.31 |
| CC(C)C[C@H](NP(=O)(O)O[C@@H]1O[C@@H](C)[C@H](O)[C@@H](O)[C@H]1O)C(=O)N[C@@H](Cc1c[nH]c2ccccc12)C(=O)O [PHOSPHORAMIDON] | 4.86 | 5.16 |

Reference: ChEMBL document CHEMBL1137626, “Identifying common metalloprotease inhibitors by protein fold types using Fourier transform mass spectrometry” (Bioorg Med Chem Lett, 2007)
